In brackets after ≈: the same amount, converted by molar mass. Entries after “also recorded” stand apart in the source; their conditions may differ.
Tests used:
MDS, AML, CML, ALL, NHL = settings: treatment of MDS; cited from earlier work
pKa of 5-azacytidine = assay type: physicochemical; settings: 25° C.
Description: (§1) Generally at lower temperature a smaller amount of 5-azacytidine may be dissolved in water.

[1] = aqueous solubility of 5-azacytidine; assay type: physicochemical; settings: water
Procedure: In one embodiment, the reconstituted liquid dosage form is allowed to warm to room temperature (e.g., within a period of less than about 30 minutes) before parenteral use. […] In some embodiments, when the dosage form is at room temperature, about one-half of 5-azacytidine is dissolved, with about the other half present as solid in the suspension.
as §1

[2] = aqueous degradation kinetics of 5-azacytidine (solution and suspension); assay type: physicochemical
Procedure: The aqueous degradation kinetics of 5-azacytidine was evaluated. […] At lower temperatures, the degradation of 5-azacytidine is slower.

[3] = human pharmacokinetics of 5-azacytidine after SC or IV dosing; assay type: in vivo
[4] = stability of 5-azacytidine suspension reconstituted with cold Water for Injection, stored refrigerated or frozen (Example E); assay type: physicochemical
Procedure: The reconstituted suspension of 5-azacytidine was then stored either refrigerated or frozen.
In one experiment, the suspension was stored at a temperature of between about 2° C. and about 8° C. for up to 72 hours, and then warmed to about 25° C. over a period of about 30 minutes. In another experiment, the suspension was stored at a temperature of about −20° C. for up to 7 days, and then thawed and stored refrigerated for up to 48 hours, and then warmed to about 25° C. over a period of about 30 minutes.
The dry lyophilized powder was stored in the vials under normal conditions for about 48 months prior to use in this experiment.
The contents of the vials were reconstituted with cold Water for Injection. Prior to reconstitution, the Water for Injection was stored refrigerated for at least 24 hours. All vials were reconstituted into an opaque, white suspension within 20 seconds.
The vials were stored at conditions described above for a certain time. The contents of all vials were re-dispersed into an opaque, white suspension within 20 seconds of shaking after each storage conditions or time points described in this example.

[5] = cold water reconstitution of Vidaza with refrigerated storage: potency, redispersibility time, appearance (Example F); assay type: physicochemical; settings: for stability time (not more than 3% loss of potency from Time 0): cold WFI (2-8° C.) reconstitution, refrigerated (2-8° C.) storage
Procedure: Sterility testing was performed at the end of the study. Stability of azacitidine was defined in this study as not more than 3% loss of potency from Time 0 (e.g., baseline).
Analytical methods and stability testing: The potency of azacitidine was determined by quantitating the sample against an external standard utilizing reverse phase chromatography with UV detection, in accordance with ICH guidelines. The determination of suspension appearance for redispersibility time was performed visually, in accordance with ICH guidelines.
Stability testing of azacitidine was performed by utilizing validated regulatory accepted analytical methods in accordance with ICH guidelines. These studies were conducted at conditions which encompass long-term, intermediate and accelerated storage of the drug product over a period of time.
Materials and methods: Two lots of sterile commercial scale azacitidine drug product, each nearing the end of their expiry period of 48 months, were used for the study. Each lot of drug product was prepared as a homogeneous mixture of lyophilized powder and placed in labeled vials in preparation for reconstitution. Vials from each lot of azacitidine drug product were then reconstituted with 4 mL of refrigerated (2-8° C.) WFI and immediately placed in refrigerated storage (2-8° C.). After refrigerated storage for 16, 18, 20, and 22 hours, reconstituted vials of azacitidine were removed from refrigeration and placed at 25° C. for 30 minutes. Equilibration time to 25° C. for refrigerated azacitidine suspension was determined to be 30 minutes. […] Stability of azacitidine was defined in this study as not more than 3% loss of potency from Time 0 (e.g., baseline). Sterility of the refrigerated drug product was assessed for reconstituted vials stored at 2-8° C. at end of study.

[6] = cold water reconstitution of Vidaza with frozen storage, Study 2: HPLC assay, redispersion time, appearance (Example G); assay type: physicochemical; settings: reconstituted with refrigerated WFI, stored frozen (−20° C.)
Procedure: The study was performed in a similar fashion as Example F, and the cold water reconstituted suspension was then stored under frozen conditions. […] A study to determine the thawing time of the frozen suspensions at 25° C. was also conducted.
Testing was performed using two lots of homogenized drug product. […] The second study analyzed the reconstituted drug product after storage of reconstituted drug product at −20° C. utilizing hold times of 24, 48, and 72 hours followed by a post hold time of 45 minutes at 25° C. to allow for thawing as determined in the first study.
Analytical Methods: The amount of azacitidine and related impurities contained in azacitidine samples was determined utilizing High Performance Liquid Chromatography (HPLC). Two methods were used to complete this testing. […] Reconstitution and redispersibility times were determined in a manner similar to that as described in Example F. Appearance of the suspension was determined visually. […]
An appropriate number of homogenized azacitidine drug product vials were reconstituted with refrigerated WFI as described above, and placed in a freezer (−20° C.). […] After thawing, the contents of the vials were analyzed, for example, by HPLC. […] In addition to the frozen vials, a set of drug product vials were reconstituted and diluted, and immediately analyzed for use as T0 (baseline). […]

higher-risk MDS = settings: Phase III, subcutaneous, subjects with higher-risk MDS; cited from earlier work
leukemic mouse model = test: activity and toxicity of degradation products in a leukemic mouse model; assay type: in vivo

In the case of `Nc1ncn([C@H]2C[C@H](O)[C@@H](CO)O2)c(=O)n1` [5-aza-2′-deoxycytidine], the “anti-tumor activity in clinical trials” value (MDS, AML, CML, ALL, NHL) is listed as “significant anti-tumor activity”.
For `Nc1ncn([C@@H]2O[C@H](CO)[C@@H](O)[C@H]2O)c(=O)n1` [5-azacytidine, 4-amino-1-β-D-ribofuranosyl-1,3,5-triazin-2(1H)-one], the pKa (pKa of 5-azacytidine; higher of the two pKa values) was about 10.2, the pKa (pKa of 5-azacytidine; lower of the two pKa values) was about 2.8 and the solubility ([1]; 5° C.) was about 6.4 mg/mL (≈ 26.2 mM). The solubility ([1]; 25° C.) was about 14 mg/mL (≈ 57.3 mM), the “Degradation Rate” value ([2]; Solution, 2° C. to 8° C.) was 0.7% per hour and the “Degradation Rate” value ([2]; Solution, 25° C.) was 2.8% per hour. For the same compound, the “Degradation Rate” value ([2]; Suspension, 2° C. to 8° C.) was 0.1% per hour, the “Degradation Rate” value ([2]; Suspension, 25° C.) was 2.5% per hour and the “Cmax for SC dosing” value ([3]; SC) was “rapid”. The bioavailability ([3]; in vivo, subcutaneous, SC vs IV, read-out: relative bioavailability of SC dose (relative to IV dose)) was about 90%, the “degradation on frozen storage” value ([4]; reconstituted with cold Water for Injection, stored frozen, for at least 7 days) was “no significant degradation” and the Degradation Rate ([4]; suspension reconstituted with cold Water for Injection, stored refrigerated) was “about 0.12 % w/w per hour”. The redispersion time ([5]; 16, 18, 20 and 22 hr refrigerated storage and 30 minutes equilibration to 25° C.) was 0.3 min, the appearance of suspension ([5]; 16, 18, 20 and 22 hr refrigerated storage and 30 minutes equilibration to 25° C., listed as Azacitidine) was “fine white particles in suspension” and the appearance of suspension ([5]; 16, 18, 20 and 22 hr refrigerated storage and 30 minutes equilibration to 25° C., listed as azacitidine) was “fine white particles in suspension and the absence of clumps”. The “stability time (not more than 3% loss of potency from Time 0)” value ([5]; listed as Azacitidine) was “about 22 hours”, the “stability time (not more than 3% loss of potency from Time 0)” value ([5]; listed as azacitidine) was 22 h and the “prolongation of stability time versus usual reconstitution” value ([5]; cold WFI reconstitution with refrigerated storage, 8 to 22 hours, listed as azacitidine) was “about a threefold prolongation; also recorded: nearly threefold”. For the same compound, the “maximum loss of potency” value ([5]; cold water (2-8° C.) reconstitution, refrigerated storage baseline to 22 hr, 30 minutes equilibration to 25° C., each of the two lots) was 2.7%, the “stability time under frozen storage” value [6] was “up to 72 hours” and the “anti-tumor activity in clinical trials” value (MDS, AML, CML, ALL, NHL) was “significant anti-tumor activity”. For the same compound, the “survival and time to AML transformation or death” value (higher-risk MDS) was “significantly prolonged survival and time to AML transformation or death”.
With `N=C(NC=O)NC(=O)N[C@@H]1O[C@H](CO)[C@@H](O)[C@H]1O` [primary degradation product, N-formylguanyribosylurea] the “activity relative to 5-azacytidine” value (leukemic mouse model; dosed at about 240 mg/m^2) was “about 25%” and the “toxicity relative to 5-azacytidine” value (leukemic mouse model; dosed at about 240 mg/m^2) was “about 25%”.
With `NC(N)=NC(=O)N[C@@H]1O[C@H](CO)[C@@H](O)[C@H]1O` [secondary degradation product, guanylribosylurea] the activity (leukemic mouse model; dosed at 1440 mg/m^2) was “neither activity nor toxicity” and the toxicity (leukemic mouse model; dosed at 1440 mg/m^2) was “neither activity nor toxicity”.

— patent US9393255B2, “Pharmaceutical compositions of cytidine analogs and methods of use thereof” (Celgene Corporation, priority 2011, dated 2016)
